Active and inactive are the calls of the source. No rule for the calls is given here.
Test system: CCRIS mutagenicity, Ames/micronucleus/aberration tests
Test: CCRIS mutagenicity studies
[1] = Test System: AMES SALMONELLA TYPHIMURIUM, Strain/Indicator: TA98, Metabolic Activation: NONE, Method: PREINCUBATION
[2] = Test System: AMES SALMONELLA TYPHIMURIUM, Strain/Indicator: TA100, Metabolic Activation: NONE, Method: PREINCUBATION

## Oc1ccccc1O
End Point: IN VITRO CHROMOSOMAL ABERRATIONS, Test System: CHINESE HAMSTER V79 CELLS, Metabolic Activation: NONE
  mutagenic call: active; positive at ph 7.4 and 8.0
End Point: IN VITRO MICRONUCLEUS, Test System: CHINESE HAMSTER LUNG (CHL)/IU CELLS, Metabolic Activation: NONE
  mutagenic call: active; positive
Test System: AMES SALMONELLA TYPHIMURIUM, Strain/Indicator: TA97, Metabolic Activation: NONE, Method: PREINCUBATION
  mutagenic call: inactive; negative
Test System: AMES SALMONELLA TYPHIMURIUM, Strain/Indicator: TA97, Metabolic Activation: RAT, LIVER, S-9, AROCLOR 1254, Method: PREINCUBATION
  mutagenic call: inactive; negative
Test System: AMES SALMONELLA TYPHIMURIUM, Strain/Indicator: TA97, Metabolic Activation: RAT, LIVER, S-9, PHENOBARBITAL, Method: PREINCUBATION
  mutagenic call: inactive; negative
Test System: AMES SALMONELLA TYPHIMURIUM, Strain/Indicator: TA98, Metabolic Activation: HAMSTER, LIVER, S-9, AROCLOR 1254, Method: PREINCUBATION
  mutagenic call: inactive; negative
Test System: AMES SALMONELLA TYPHIMURIUM, Strain/Indicator: TA98, Metabolic Activation: NONE
  mutagenic call: inactive; negative
[1]
  mutagenic call: inactive; negative
Test System: AMES SALMONELLA TYPHIMURIUM, Strain/Indicator: TA98, Metabolic Activation: RAT, LIVER, S-9, AROCLOR 1254, Method: PREINCUBATION
  mutagenic call: inactive; negative
Test System: AMES SALMONELLA TYPHIMURIUM, Strain/Indicator: TA98, Metabolic Activation: RAT, LIVER, S-9, PHENOBARBITAL, Method: PREINCUBATION
  mutagenic call: inactive; negative
Test System: AMES SALMONELLA TYPHIMURIUM, Strain/Indicator: TA98, Metabolic Activation: S-9
  mutagenic call: inactive; negative
Test System: AMES SALMONELLA TYPHIMURIUM, Strain/Indicator: TA100, Metabolic Activation: HAMSTER, LIVER, S-9, AROCLOR 1254, Method: PREINCUBATION
  mutagenic call: inactive; negative
Test System: AMES SALMONELLA TYPHIMURIUM, Strain/Indicator: TA100, Metabolic Activation: NONE, Method: FLUCTUATION TEST
  mutagenic call: active; positive
[2]
  mutagenic call: inactive; negative
Test System: AMES SALMONELLA TYPHIMURIUM, Strain/Indicator: TA100, Metabolic Activation: RAT, LIVER, S-9, AROCLOR 1254, Method: PREINCUBATION
  mutagenic call: inactive; negative
Test System: AMES SALMONELLA TYPHIMURIUM, Strain/Indicator: TA100, Metabolic Activation: RAT, LIVER, S-9, PCB, Method: FLUCTUATION TEST
  mutagenic call: active; positive
Test System: AMES SALMONELLA TYPHIMURIUM, Strain/Indicator: TA100, Metabolic Activation: RAT, LIVER, S-9, PHENOBARBITAL, Method: PREINCUBATION
  mutagenic call: inactive; negative
Test System: AMES SALMONELLA TYPHIMURIUM, Strain/Indicator: TA102, Metabolic Activation: NONE, Method: PREINCUBATION
  mutagenic call: inactive; negative
Test System: AMES SALMONELLA TYPHIMURIUM, Strain/Indicator: TA102, Metabolic Activation: RAT, LIVER, S-9, AROCLOR 1254, Method: PREINCUBATION
  mutagenic call: inactive; negative
Test System: AMES SALMONELLA TYPHIMURIUM, Strain/Indicator: TA104, Metabolic Activation: NONE, Method: PREINCUBATION
  mutagenic call: inactive; negative
Test System: AMES SALMONELLA TYPHIMURIUM, Strain/Indicator: TA104, Metabolic Activation: RAT, LIVER, S-9, AROCLOR 1254, Method: PREINCUBATION
  mutagenic call: inactive; negative
Test System: AMES SALMONELLA TYPHIMURIUM, Strain/Indicator: TA1535, Metabolic Activation: HAMSTER, LIVER, S-9, AROCLOR 1254, Method: PREINCUBATION
  mutagenic call: inactive; negative
Test System: AMES SALMONELLA TYPHIMURIUM, Strain/Indicator: TA1535, Metabolic Activation: NONE, Method: PREINCUBATION
  mutagenic call: inactive; negative
Test System: AMES SALMONELLA TYPHIMURIUM, Strain/Indicator: TA1535, Metabolic Activation: RAT, LIVER, S-9, AROCLOR 1254, Method: PREINCUBATION
  mutagenic call: inactive; negative
Test System: AMES SALMONELLA TYPHIMURIUM, Strain/Indicator: TA1537, Metabolic Activation: HAMSTER, LIVER, S-9, AROCLOR 1254, Method: PREINCUBATION
  mutagenic call: inactive; negative
Test System: AMES SALMONELLA TYPHIMURIUM, Strain/Indicator: TA1537, Metabolic Activation: NONE, Method: PREINCUBATION
  mutagenic call: inactive; negative
Test System: AMES SALMONELLA TYPHIMURIUM, Strain/Indicator: TA1537, Metabolic Activation: RAT, LIVER, S-9, AROCLOR 1254, Method: PREINCUBATION
  mutagenic call: inactive; negative
Test System: Ames Salmonella typhimurium, Strain/Indicator: TA98, Metabolic Activation: None, Method: Preincubation
  mutagenic call: inactive; negative
Test System: Ames Salmonella typhimurium, Strain/Indicator: TA98, Metabolic Activation: Rat, Liver, S9, Sodium phenobarbital and 5,6-benzoflavone, Method: Preincubation
  mutagenic call: inactive; negative
Test System: Ames Salmonella typhimurium, Strain/Indicator: TA100, Metabolic Activation: None, Method: Preincubation
  mutagenic call: inactive; negative
Test System: Ames Salmonella typhimurium, Strain/Indicator: TA100, Metabolic Activation: Rat, Liver, S9, Sodium phenobarbital and 5,6-benzoflavone, Method: Preincubation
  mutagenic call: inactive; negative
Test System: Ames Salmonella typhimurium, Strain/Indicator: TA1535, Metabolic Activation: None, Method: Preincubation
  mutagenic call: inactive; negative
Test System: Ames Salmonella typhimurium, Strain/Indicator: TA1535, Metabolic Activation: Rat, Liver, S9, Sodium phenobarbital and 5,6-benzoflavone, Method: Preincubation
  mutagenic call: inactive; negative
Test System: Ames Salmonella typhimurium, Strain/Indicator: TA1537, Metabolic Activation: None, Method: Preincubation
  mutagenic call: inactive; negative
Test System: Ames Salmonella typhimurium, Strain/Indicator: TA1537, Metabolic Activation: Rat, Liver, S9, Sodium phenobarbital and 5,6-benzoflavone, Method: Preincubation
  mutagenic call: inactive; negative
Test System: CHINESE HAMSTER V-79, Strain/Indicator: V-79/6-THIOGUANINE, Metabolic Activation: NONE
  mutagenic call: active; positive
Test System: E. coli, Strain/Indicator: WP2uvrA/pKM101, Metabolic Activation: None, Method: Preincubation
  mutagenic call: inactive; negative
Test System: E. coli, Strain/Indicator: WP2uvrA/pKM101, Metabolic Activation: Rat, Liver, S9, Sodium phenobarbital and 5,6-benzoflavone, Method: Preincubation
  mutagenic call: inactive; negative
Test System: E. coli, Strain/Indicator: Wp2uvrA/pKM101, Metabolic Activation: None, Method: Preincubation
  mutagenic call: inactive; negative
Test System: E. coli, Strain/Indicator: Wp2uvrA/pKM101, Metabolic Activation: Rat, Liver, S9, Sodium phenobarbital and 5,6-benzoflavone, Method: Preincubation
  mutagenic call: inactive; negative
Test System: MOUSE LYMPHOMA, Strain/Indicator: L5178Y (TK+/TK-), Metabolic Activation: NONE, Method: SUSPENSION/PLATE
  mutagenic call: active; positive
Test System: UDS SYRIAN HAMSTER EMBRYO (SHE) CELLS, Strain/Indicator: THY INCORP, Metabolic Activation: NONE, Method: LIQUID SCINTILLATION COUNTING
  mutagenic call: active; positive

## CC(=O)OCc1c(O)cc2c(c1O)C(=O)c1ccccc1C2=O
[1]
  mutagenic call: active; positive
Test System: AMES SALMONELLA TYPHIMURIUM, Strain/Indicator: TA98, Metabolic Activation: RAT, LIVER, S-9, PCB, Method: PREINCUBATION
  mutagenic call: active; positive
[2]
  mutagenic call: active; positive
Test System: AMES SALMONELLA TYPHIMURIUM, Strain/Indicator: TA100, Metabolic Activation: RAT, LIVER, S-9, PCB, Method: PREINCUBATION
  mutagenic call: active; positive

From PubChem BioAssay AID1259407 (Chemical Carcinogenesis Research Information System (CCRIS), 2018)
